Residues, ends and D or L forms follow the SMILES beside them.
Test system: dermal reaction to tetanus toxoid antigen
Conditions: in vivo

Structure (SMILES): N[C@@H](Cc1ccc(O)cc1)C(=O)NCC(=O)NCC(=O)O [TGG, Tyr-Gly-Gly] (H-Tyr-Gly-Gly-OH)
- Dermal reaction without antigen: No reaction was observed
